# Target: T1, AURKA (Homo sapiens, UniProt O14965)
# T1 construct: endogenous in cells; host or cells: Jurkat cells
# T1 sequence (O14965 1-403): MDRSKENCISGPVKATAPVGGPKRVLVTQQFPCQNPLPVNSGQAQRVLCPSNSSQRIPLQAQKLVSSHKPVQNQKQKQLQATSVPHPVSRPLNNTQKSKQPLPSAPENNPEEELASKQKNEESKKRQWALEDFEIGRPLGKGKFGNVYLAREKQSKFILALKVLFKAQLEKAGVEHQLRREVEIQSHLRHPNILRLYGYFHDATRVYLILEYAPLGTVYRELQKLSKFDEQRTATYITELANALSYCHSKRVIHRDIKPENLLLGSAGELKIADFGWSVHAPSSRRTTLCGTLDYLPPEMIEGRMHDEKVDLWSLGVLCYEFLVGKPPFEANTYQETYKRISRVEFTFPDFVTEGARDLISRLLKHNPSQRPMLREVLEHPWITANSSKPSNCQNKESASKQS
# Assay: not given
# Format: cell-based
# Settings: 100 nM compound, Jurkat cells, 24 h, Table 2
# Summary of the method: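 Jurkat cells seeded at 1×10^6 cells/500 µL and treated with compound; lysates run on SDS-PAGE, blotted to nitrocellulose and probed overnight at 4°C for AURKA. Chemiluminescent or fluorescent band intensity fitted to a curve to give DC50 for protein degradation.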
row,SMILES,Percentage of AURKA Degradation Induced by 100 nM Compound in Jurkat Cells
1,O=C1CCN(c2cnc(N3CCN(CC4(F)CN(c5ccc(Nc6ncc7c(n6)-c6ccc(Cl)cc6C(c6c(F)cccc6F)=NC7)cc5)C4)CC3)nc2)C(=O)N1 [Compound A286],++ (30% < Degradation ≤ 70%)
2,O=C1CCN(c2ccc(N3CC4COCC(C3)N4CC3CCN(c4ccc(Nc5ncc6c(n5)-c5ccc(Cl)cc5C(c5c(F)cccc5F)=NC6)cc4)CC3)nc2)C(=O)N1 [Compound A359],+++ (Degradation > 70%)
3,O=C1CCN(c2ccc(N3CCC(N4C5COCC4CN(c4ccc(Nc6ncc7c(n6)-c6ccc(Cl)cc6C(c6c(F)cccc6F)=NC7)cc4)C5)CC3)nc2)C(=O)N1 [Compound A357],++ (30% < Degradation ≤ 70%)
4,O=C1CCN(c2ccc(N3CCC4(CC3)CC(NC(=O)c3ccc(Nc5ncc6c(n5)-c5ccc(F)cc5C(c5c(F)cccc5F)=NC6)cc3)C4)nc2)C(=O)N1 [Compound A109],++ (30% < Degradation ≤ 70%)
5,O=C1CCN(c2ccc(N3CCOC(CN4CCN(C56CC(Nc7ncc8c(n7)-c7ccc(Cl)cc7C(c7c(F)cccc7F)=NC8)(C5)C6)C(=O)C4)C3)nc2)C(=O)N1 (stereo not drawn) [Compound A311],+++ (Degradation > 70%)
6,Cn1c(CN2CCN(c3ccc(N4CCC(=O)NC4=O)cc3)CC2)cnc1-c1ccc(Nc2ncc3c(n2)-c2ccc(Cl)cc2C(c2c(F)cccc2F)=NC3)cc1 [Compound A106],+++ (Degradation > 70%)
7,O=C1CCN(c2ccc(N3CC(N4CCN(Cc5ccc(Nc6ncc7c(n6)-c6ccc(Cl)cc6C(c6c(F)cccc6F)=NC7)cc5)CC4)C3)nc2)C(=O)N1 [Compound A101],+++ (Degradation > 70%)
8,O=C1CCN(c2ccc(N3CCC4(CC3)CC(N3CCN(c5ccc(Nc6ncc7c(n6)-c6ccc(Cl)cc6C(c6c(F)cccc6F)=NC7)cc5)CC3)CO4)nc2)C(=O)N1 (racemic) [Compound A340],+++ (Degradation > 70%)
9,O=C1CCN(c2ccc(N3CCN(Cc4cnc(-c5ccc(Nc6ncc7c(n6)-c6ccc(Cl)cc6C(c6c(F)cccc6F)=NC7)cc5)[nH]4)CC3)cc2)C(=O)N1 [Compound A121],+++ (Degradation > 70%)
10,O=C1CCN(c2cncc(N3CC(CN4CCOc5ccc(Nc6ncc7c(n6)-c6ccc(Cl)cc6C(c6c(F)cccc6F)=NC7)cc5C4)C3)c2)C(=O)N1 [Compound A214],+++ (Degradation > 70%)
11,O=C1CCN(c2ccc(N3CCN(CC#Cc4cccc(Nc5ncc6c(n5)-c5ccc(Cl)cc5C(c5c(F)cccc5F)=NC6)c4)CC3)cc2)C(=O)N1 [Compound A99],++ (30% < Degradation ≤ 70%)
12,NC(=O)c1cc(N2CCN(C(=O)C3CCN(c4ccc(Nc5ncc6c(n5)-c5ccc(Cl)cc5C(c5c(F)cccc5F)=NC6)cc4)CC3)CC2)ncc1N1CCC(=O)NC1=O [Compound A334],+ (Degradation ≤ 30%)
13,O=C1CCN(c2cccc(N3CC(C(=O)N4CCOc5ccc(Nc6ncc7c(n6)-c6ccc(Cl)cc6C(c6c(F)cccc6F)=NC7)cc5C4)C3)c2)C(=O)N1 [Compound A235],++ (30% < Degradation ≤ 70%)

# Same assay, conditions: 1 µM compound, Jurkat cells, 24 h, Table 2
row,SMILES,Percentage of AURKA Degradation Induced by 1 µM Compound in Jurkat Cells
1,O=C1CCN(c2cnc(N3CCN(CC4(F)CN(c5ccc(Nc6ncc7c(n6)-c6ccc(Cl)cc6C(c6c(F)cccc6F)=NC7)cc5)C4)CC3)nc2)C(=O)N1 [Compound A286],++ (30% < Degradation ≤ 70%)
2,O=C1CCN(c2ccc(N3CC4COCC(C3)N4CC3CCN(c4ccc(Nc5ncc6c(n5)-c5ccc(Cl)cc5C(c5c(F)cccc5F)=NC6)cc4)CC3)nc2)C(=O)N1 [Compound A359],+++ (Degradation > 70%)
3,O=C1CCN(c2ccc(N3CCC(N4C5COCC4CN(c4ccc(Nc6ncc7c(n6)-c6ccc(Cl)cc6C(c6c(F)cccc6F)=NC7)cc4)C5)CC3)nc2)C(=O)N1 [Compound A357],+ (Degradation ≤ 30%)
4,O=C1CCN(c2ccc(N3CCC4(CC3)CC(NC(=O)c3ccc(Nc5ncc6c(n5)-c5ccc(F)cc5C(c5c(F)cccc5F)=NC6)cc3)C4)nc2)C(=O)N1 [Compound A109],++ (30% < Degradation ≤ 70%)
5,O=C1CCN(c2ccc(N3CCOC(CN4CCN(C56CC(Nc7ncc8c(n7)-c7ccc(Cl)cc7C(c7c(F)cccc7F)=NC8)(C5)C6)C(=O)C4)C3)nc2)C(=O)N1 (stereo not drawn) [Compound A311],+++ (Degradation > 70%)
6,Cn1c(CN2CCN(c3ccc(N4CCC(=O)NC4=O)cc3)CC2)cnc1-c1ccc(Nc2ncc3c(n2)-c2ccc(Cl)cc2C(c2c(F)cccc2F)=NC3)cc1 [Compound A106],+++ (Degradation > 70%)
7,O=C1CCN(c2ccc(N3CC(N4CCN(Cc5ccc(Nc6ncc7c(n6)-c6ccc(Cl)cc6C(c6c(F)cccc6F)=NC7)cc5)CC4)C3)nc2)C(=O)N1 [Compound A101],+++ (Degradation > 70%)
8,O=C1CCN(c2ccc(N3CCC4(CC3)CC(N3CCN(c5ccc(Nc6ncc7c(n6)-c6ccc(Cl)cc6C(c6c(F)cccc6F)=NC7)cc5)CC3)CO4)nc2)C(=O)N1 (racemic) [Compound A340],+++ (Degradation > 70%)
9,O=C1CCN(c2ccc(N3CCN(Cc4cnc(-c5ccc(Nc6ncc7c(n6)-c6ccc(Cl)cc6C(c6c(F)cccc6F)=NC7)cc5)[nH]4)CC3)cc2)C(=O)N1 [Compound A121],++ (30% < Degradation ≤ 70%)
10,O=C1CCN(c2cncc(N3CC(CN4CCOc5ccc(Nc6ncc7c(n6)-c6ccc(Cl)cc6C(c6c(F)cccc6F)=NC7)cc5C4)C3)c2)C(=O)N1 [Compound A214],+ (Degradation ≤ 30%)
11,O=C1CCN(c2ccc(N3CCN(CC#Cc4cccc(Nc5ncc6c(n5)-c5ccc(Cl)cc5C(c5c(F)cccc5F)=NC6)c4)CC3)cc2)C(=O)N1 [Compound A99],+ (Degradation ≤ 30%)
12,NC(=O)c1cc(N2CCN(C(=O)C3CCN(c4ccc(Nc5ncc6c(n5)-c5ccc(Cl)cc5C(c5c(F)cccc5F)=NC6)cc4)CC3)CC2)ncc1N1CCC(=O)NC1=O [Compound A334],+ (Degradation ≤ 30%)
13,O=C1CCN(c2cccc(N3CC(C(=O)N4CCOc5ccc(Nc6ncc7c(n6)-c6ccc(Cl)cc6C(c6c(F)cccc6F)=NC7)cc5C4)C3)c2)C(=O)N1 [Compound A235],+ (Degradation ≤ 30%)

# Tested on: H82 cells
# Assay: cells
# Format: cell-based
# Settings: Homo sapiens, NCI-H82, read-out: IC50 in H82 Cells
# Summary of the method: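 H82 cells in RPMI1640 + 10% FBS exposed to compound (0.1% DMSO final) for 6 days at 37 °C, 5% CO2. Viability read by CellTiter-Glo ATP luminescence, normalised to DMSO and medium controls; IC50 from nonlinear regression of the dose–survival curve.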
row,SMILES,IC50 [nM]
1,O=C1CCN(c2ccc(N3CCC4(CC3)CC(N3CCN(c5ccc(Nc6ncc7c(n6)-c6ccc(Cl)cc6C(c6c(F)cccc6F)=NC7)cc5)CC3)CO4)nc2)C(=O)N1 (racemic) [Compound A340],< 1000

# Same assay, conditions: Homo sapiens, NCI-H82; H82 cells, 4000 cells/well, CellTiter-Glo; read-out: IC50 in H82 Cells
row,SMILES,IC50 [nM]
1,O=C1CCN(c2cnc(N3CCN(CC4(F)CN(c5ccc(Nc6ncc7c(n6)-c6ccc(Cl)cc6C(c6c(F)cccc6F)=NC7)cc5)C4)CC3)nc2)C(=O)N1 [Compound A286],< 1000
2,O=C1CCN(c2ccc(N3CC4COCC(C3)N4CC3CCN(c4ccc(Nc5ncc6c(n5)-c5ccc(Cl)cc5C(c5c(F)cccc5F)=NC6)cc4)CC3)nc2)C(=O)N1 [Compound A359],< 1000
3,O=C1CCN(c2ccc(N3CCC(N4C5COCC4CN(c4ccc(Nc6ncc7c(n6)-c6ccc(Cl)cc6C(c6c(F)cccc6F)=NC7)cc4)C5)CC3)nc2)C(=O)N1 [Compound A357],< 1000
4,O=C1CCN(c2ccc(N3CCC4(CC3)CC(NC(=O)c3ccc(Nc5ncc6c(n5)-c5ccc(F)cc5C(c5c(F)cccc5F)=NC6)cc3)C4)nc2)C(=O)N1 [Compound A109],< 1000
5,O=C1CCN(c2ccc(N3CCOC(CN4CCN(C56CC(Nc7ncc8c(n7)-c7ccc(Cl)cc7C(c7c(F)cccc7F)=NC8)(C5)C6)C(=O)C4)C3)nc2)C(=O)N1 (stereo not drawn) [Compound A311],< 1000
6,Cn1c(CN2CCN(c3ccc(N4CCC(=O)NC4=O)cc3)CC2)cnc1-c1ccc(Nc2ncc3c(n2)-c2ccc(Cl)cc2C(c2c(F)cccc2F)=NC3)cc1 [Compound A106],< 1000
7,O=C1CCN(c2ccc(N3CC(N4CCN(Cc5ccc(Nc6ncc7c(n6)-c6ccc(Cl)cc6C(c6c(F)cccc6F)=NC7)cc5)CC4)C3)nc2)C(=O)N1 [Compound A101],< 1000
8,O=C1CCN(c2ccc(N3CCN(Cc4cnc(-c5ccc(Nc6ncc7c(n6)-c6ccc(Cl)cc6C(c6c(F)cccc6F)=NC7)cc5)[nH]4)CC3)cc2)C(=O)N1 [Compound A121],< 1000
9,O=C1CCN(c2cncc(N3CC(CN4CCOc5ccc(Nc6ncc7c(n6)-c6ccc(Cl)cc6C(c6c(F)cccc6F)=NC7)cc5C4)C3)c2)C(=O)N1 [Compound A214],< 1000
10,O=C1CCN(c2ccc(N3CCN(CC#Cc4cccc(Nc5ncc6c(n5)-c5ccc(Cl)cc5C(c5c(F)cccc5F)=NC6)c4)CC3)cc2)C(=O)N1 [Compound A99],< 1000
11,NC(=O)c1cc(N2CCN(C(=O)C3CCN(c4ccc(Nc5ncc6c(n5)-c5ccc(Cl)cc5C(c5c(F)cccc5F)=NC6)cc4)CC3)CC2)ncc1N1CCC(=O)NC1=O [Compound A334],< 1000
12,O=C1CCN(c2cccc(N3CC(C(=O)N4CCOc5ccc(Nc6ncc7c(n6)-c6ccc(Cl)cc6C(c6c(F)cccc6F)=NC7)cc5C4)C3)c2)C(=O)N1 [Compound A235],< 1000

# From EP4818168A1, “FUSED RING COMPOUND, PHARMACEUTICAL COMPOSITION THEREOF AND USE THEREOF” (priority 2023, dated 2025)
